Laboratory results published in ChEMBL document CHEMBL5528085, “Subtle Structural Changes across the Boundary between A2AR/A2BR Dual Antagonism and A2BR Antagonism: A Novel Class of 2-Aminopyrimidine-Based Derivatives” (J Med Chem, 2024).

Experiments:
Adenosine receptor A2a [1] = biological target: T1, Adenosine receptor A2a (Homo sapiens, UniProt P29274); experiment: Antagonist activity at human adenosine 2A receptor overexpressed in HEK293 cells preincubated for 0.5 hrs followed by NECA stimulation by GloSensor cAMP assay; type: functional, cell-based
Adenosine receptor A2b [2] = biological target: T2, Adenosine receptor A2b (Homo sapiens, UniProt P29275); experiment: Antagonist activity at human adenosine 2B receptor overexpressed in HEK293 cells preincubated for 0.5 hrs followed by NECA stimulation by GloSensor cAMP assay; type: functional, cell-based
T2 sequence (P29275 whole entry): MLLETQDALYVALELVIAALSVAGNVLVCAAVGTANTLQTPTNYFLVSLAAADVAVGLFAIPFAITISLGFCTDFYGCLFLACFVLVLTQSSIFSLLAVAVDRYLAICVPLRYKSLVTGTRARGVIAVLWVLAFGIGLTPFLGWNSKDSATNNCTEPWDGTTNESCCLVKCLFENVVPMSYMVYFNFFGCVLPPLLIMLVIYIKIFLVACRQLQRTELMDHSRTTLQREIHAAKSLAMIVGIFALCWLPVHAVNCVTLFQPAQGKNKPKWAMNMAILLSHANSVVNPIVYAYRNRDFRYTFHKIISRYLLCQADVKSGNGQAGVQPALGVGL

Homo sapiens = species: Homo sapiens; experiment: Selectivity ratio of IC50 for antagonist activity at human adenosine 2A receptor overexpressed in HEK293 cells to IC50 for antagonist activity at human adenosine 2B receptor overexpressed in HEK293 cells; type: cell-based
Adenosine receptor A2a [3] = biological target: T1, Adenosine receptor A2a; experiment: Antagonist activity at adenosine 2A receptor (unknown origin)
Adenosine receptor A2b [4] = biological target: T2, Adenosine receptor A2b; experiment: Antagonist activity at adenosine 2B receptor (unknown origin); type: functional
Adenosine receptor A1 = biological target: T3, Adenosine receptor A1 (Homo sapiens, UniProt P30542); experiment: Antagonist activity at human Adenosine A1 receptor overexpressed in HEK293 cells preincubated for 0.5 hrs followed by NECA stimulation by GloSensor cAMP assay; type: functional, cell-based
T3 sequence (P30542 whole entry): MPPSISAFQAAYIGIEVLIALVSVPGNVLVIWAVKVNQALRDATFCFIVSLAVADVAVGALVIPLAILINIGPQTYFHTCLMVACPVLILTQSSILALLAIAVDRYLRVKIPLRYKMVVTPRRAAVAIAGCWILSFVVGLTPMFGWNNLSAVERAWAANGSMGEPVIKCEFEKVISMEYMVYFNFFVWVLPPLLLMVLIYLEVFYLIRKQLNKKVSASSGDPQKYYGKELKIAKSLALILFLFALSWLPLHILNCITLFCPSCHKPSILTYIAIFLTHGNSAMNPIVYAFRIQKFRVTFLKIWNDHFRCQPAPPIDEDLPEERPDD

T1 sequence (P29274 whole entry): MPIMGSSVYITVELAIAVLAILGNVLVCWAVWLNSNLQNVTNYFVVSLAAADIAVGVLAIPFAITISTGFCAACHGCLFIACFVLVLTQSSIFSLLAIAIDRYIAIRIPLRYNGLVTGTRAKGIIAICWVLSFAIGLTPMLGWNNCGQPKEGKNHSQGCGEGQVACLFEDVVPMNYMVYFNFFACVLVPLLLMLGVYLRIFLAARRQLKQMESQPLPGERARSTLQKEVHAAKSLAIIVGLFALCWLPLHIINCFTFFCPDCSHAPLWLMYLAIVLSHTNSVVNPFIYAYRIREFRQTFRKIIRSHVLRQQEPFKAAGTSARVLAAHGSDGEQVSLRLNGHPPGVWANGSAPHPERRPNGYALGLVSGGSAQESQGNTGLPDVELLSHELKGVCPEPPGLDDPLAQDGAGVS

Structure (SMILES)	IC50 (Adenosine receptor A2a [1])	IC50 (Adenosine receptor A2b [2])	Ratio IC50 (Homo sapiens)	other results
Cc1c(C#N)cccc1-c1cc(-c2cn(Cc3c[nH]c4c(Cl)cccc34)nn2)nc(N)n1	1140 nM	1080 nM	1.1	–
COc1ncc(C2=CCOCC2)c2sc(NC(=O)N3CC[C@@]4(CCCOC4)C3)nc12 [MUVADENANT]	–	–	–	IC50 (Adenosine receptor A2a [3]): < 10 nM; IC50 (Adenosine receptor A2b [4]): < 10 nM
Cc1c(C#N)cccc1-c1cc(-c2cn(Cc3cnc4ccccn34)nn2)nc(N)n1	> 100000 nM	> 100000 nM	–	–
Cc1c(C#N)cccc1-c1cc(-c2cn(Cc3csc4c3CCCC4)nn2)nc(N)n1	11.6 nM	101 nM	0.1	–
Cc1c(C#N)cccc1-c1cc(-c2cn(Cc3cccc(C(C)(C)O)n3)nn2)nc(N)n1 [ETRUMADENANT]	7.5 nM	31.4 nM	0.2	Ki (Adenosine receptor A2a [3]): 0.851 nM; Ki (Adenosine receptor A2b [4]): 3.16 nM; IC50 (Adenosine receptor A1): 87.3 nM
Cc1c(C#N)cccc1-c1cc(-c2cn(Cc3ccc4[nH]ccc4c3)nn2)nc(N)n1	1010 nM	43.1 nM	23.5	–
Cc1c(C#N)cccc1-c1cc(-c2cn(Cc3c[nH]c4cccc(Cl)c34)nn2)nc(N)n1	172 nM	316 nM	0.5	–
Cc1c(C#N)cccc1-c1cc(-c2cn(Cc3ccc4cc[nH]c4c3)nn2)nc(N)n1	427 nM	134 nM	3.2	–
Cc1c(C#N)cccc1-c1cc(-c2cn(Cc3c[nH]c4cc(Cl)c(Cl)cc34)nn2)nc(N)n1	6320 nM	209 nM	30.2	–
Cc1c(C#N)cccc1-c1cc(-c2cn(Cc3c[nH]c4cccnc34)nn2)nc(N)n1	–	3.6 nM	–	–

More lines, main results first:

IC50 (Adenosine receptor A2a [1])	IC50 (Adenosine receptor A2b [2])	Structure (SMILES)	Ratio IC50 (Homo sapiens)	other results
753 nM	55.8 nM	Cc1c(C#N)cccc1-c1cc(-c2cn(Cc3c[nH]c4cc(Cl)ccc34)nn2)nc(N)n1	13.5	–
> 100000 nM	97.7 nM	COC(=O)c1ccc2c(Cn3cc(-c4cc(-c5cccc(C#N)c5C)nc(N)n4)nn3)c[nH]c2c1	–	–
70.2 nM	38.2 nM	COC(=O)c1ccc2[nH]cc(Cn3cc(-c4cc(-c5cccc(C#N)c5C)nc(N)n4)nn3)c2c1	1.8	–
18.3 nM	9.7 nM	Cc1c(C#N)cccc1-c1cc(-c2cn(Cc3c[nH]c4ccc(S(C)(=O)=O)cc34)nn2)nc(N)n1	1.9	–
169 nM	11.6 nM	Cc1c(C#N)cccc1-c1cc(-c2cn(Cc3c[nH]c4ccncc34)nn2)nc(N)n1	14.6	–
–	44.7 nM	COc1ccc2[nH]cc(Cn3cc(-c4cc(-c5cccc(C#N)c5C)nc(N)n4)nn3)c2c1	–	–
3850 nM	30.6 nM	Cc1c(C#N)cccc1-c1cc(-c2cn(Cc3c[nH]c4cc(OC(C)C)ccc34)nn2)nc(N)n1	126	–
112 nM	43.8 nM	Cc1c(C#N)cccc1-c1cc(-c2cn(Cc3c[nH]c4ccccc34)nn2)nc(N)n1	2.6	–
244 nM	45.4 nM	Cc1c(C#N)cccc1-c1cc(-c2cn(Cc3c[nH]c4ccc(Cl)cc34)nn2)nc(N)n1	5.4	–
